For the assay, the target named is T1, recombinant full-length USP7 (Homo sapiens, UniProt Q93009).
T1 construct: A 25 μl reaction volume containing recombinant full-length USP7 (62 pM)
The experiment in a line: USP7-mediated ubiquitin-rhodamine cleavage assay. The format is biochemical. Particulars: recombinant full-length USP7 62 pM, ubiquitin-rhodamine 100 nM, 1 hour reaction at room temperature. A digest of the protocol: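 Rhodamine fluorescence read-out after acetic acid stop; IC50 by 4-parameter nonlinear regression. Enzyme at 62 pM, substrate ubiquitin-rhodamine 100 nM final, 1 h at room temperature in the dark, after 30 min compound preincubation. Buffer: HEPES pH 7.3, NaCl, TCEP, BSA; 1% DMSO.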

The mark [1] stands for this setting: 30-minute pre-incubation, read-out: Potency (USP7 IC50).
[2] abbreviates: 30-minute incubation with compound, read-out: Potency: USP7 IC50.

Each structure is given as a SMILES string. Counter-ions that a name gives are not always drawn. Like-named read-outs stand apart in the source and are kept apart here.

As a reminder, the IC50 is the concentration at which inhibition is half-maximal.

T1 sequence (Q93009 whole entry): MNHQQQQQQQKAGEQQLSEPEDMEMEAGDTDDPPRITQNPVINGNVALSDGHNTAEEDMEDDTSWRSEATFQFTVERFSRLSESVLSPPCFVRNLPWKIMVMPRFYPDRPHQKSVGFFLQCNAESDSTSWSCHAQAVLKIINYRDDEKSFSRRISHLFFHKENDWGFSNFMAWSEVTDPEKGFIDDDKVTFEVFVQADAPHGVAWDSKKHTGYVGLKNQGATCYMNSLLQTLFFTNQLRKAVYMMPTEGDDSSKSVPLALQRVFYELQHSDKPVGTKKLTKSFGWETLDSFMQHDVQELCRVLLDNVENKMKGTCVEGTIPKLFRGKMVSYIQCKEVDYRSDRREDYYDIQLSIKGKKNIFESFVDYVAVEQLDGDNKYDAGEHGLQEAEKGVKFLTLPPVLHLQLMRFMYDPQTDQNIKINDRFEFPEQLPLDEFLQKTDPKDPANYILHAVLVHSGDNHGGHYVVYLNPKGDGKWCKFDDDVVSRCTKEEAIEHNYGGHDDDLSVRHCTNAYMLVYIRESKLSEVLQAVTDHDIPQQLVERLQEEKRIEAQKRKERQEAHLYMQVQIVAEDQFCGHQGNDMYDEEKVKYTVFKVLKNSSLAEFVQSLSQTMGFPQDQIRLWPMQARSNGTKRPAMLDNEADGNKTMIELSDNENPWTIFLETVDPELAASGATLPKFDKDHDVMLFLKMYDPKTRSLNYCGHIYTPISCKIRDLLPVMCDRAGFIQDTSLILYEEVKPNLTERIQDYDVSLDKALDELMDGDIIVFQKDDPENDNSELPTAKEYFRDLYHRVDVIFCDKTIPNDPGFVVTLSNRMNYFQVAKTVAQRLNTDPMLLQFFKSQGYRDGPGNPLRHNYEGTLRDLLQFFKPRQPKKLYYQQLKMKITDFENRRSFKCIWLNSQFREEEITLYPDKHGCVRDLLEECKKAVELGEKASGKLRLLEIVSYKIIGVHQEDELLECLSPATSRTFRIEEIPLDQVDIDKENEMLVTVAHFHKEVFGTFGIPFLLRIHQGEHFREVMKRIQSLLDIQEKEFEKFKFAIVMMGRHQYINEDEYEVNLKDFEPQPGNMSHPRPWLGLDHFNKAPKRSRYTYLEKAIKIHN

Consider `Cc1cc(Cl)cc(-c2ccnc3cc(Cn4c(=O)ccn(C)c4=O)sc23)c1OC1CNCC(F)(F)C1` (centres unmarked) [Example 442, 3-[[7-[5-chloro-2-[(5,5-difluoro-3-piperidyl)oxy]-3-methyl-phenyl]thieno[3,2-b]pyridin-2-yl]methyl]-1-methyl-pyrimidine-2,4-dione; 2,2,2-trifluoroacetic acid], for which the IC50 under setting [1] is below 1000 nM. For the compound `Cc1cc(Cl)cc(-c2ncnc3cc(Cn4c(=O)ccn(CC(F)(F)F)c4=O)sc23)c1O[C@H]1CNC[C@@H]1C` [Example 578, 3-[[4-[5-chloro-3-methyl-2-[(3R,4S)-4-methylpyrrolidin-3-yl]oxy-phenyl]thieno[3,2-d]pyrimidin-6-yl]methyl]-1-(2,2,2-trifluoroethyl)pyrimidine-2,4-dione], the IC50 under setting [1] is below 1000 nM. Consider `Cc1cc(Cl)cc(-c2ccnc3cc(CN4C(=O)CCCC4=O)sc23)c1OC1CCNCC1` [Example 235, 1-((7-(5-Chloro-3-methyl-2-(piperidin-4-yloxy)phenyl)thieno[3,2-b]pyridin-2-yl)methyl)piperidine-2,6-dione], for which the IC50 under setting [2] is below 1000 nM. In the case of `Cc1cc(Cl)cc(-c2ccnc3cc(CN4C(=O)CCC4=O)sc23)c1OC1CNCC1(C)C` (centres unmarked) [Example 345, 1-[[7-[5-chloro-2-(4,4-dimethylpyrrolidin-3-yl)oxy-3-methyl-phenyl]thieno[3,2-b]pyridin-2-yl]methyl]pyrrolidine-2,5-dione], the IC50 under setting [2] was below 1000 nM.

For the compound `Cc1cc(Cl)cc(-c2ccnc3cc(Cn4c(=O)ccn(CC(F)(F)F)c4=O)sc23)c1OC1CCNCC1C(F)(F)F` (centres unmarked) [Example 272, 3-((7-(5-Chloro-3-methyl-2-((3-(trifluoromethyl)piperidin-4-yl)oxy)phenyl)thieno[3,2-b]pyridin-2-yl)methyl)-1-(2,2,2-trifluoroethyl)pyrimidine-2,4(1H,3H)-dione], under setting [2], the IC50 is below 1000 nM. On the same count and under the same terms, next, `Cc1cc(Cl)cc(-c2ccnc3cc(CN4C(=O)c5cccnc5C4=O)sc23)c1O[C@H]1CCCNC1` [Example 334, 6-[[7-[5-chloro-3-methyl-2-[[(3S)-3-piperidyl]oxy]phenyl]thieno[3,2-b]pyridin-2-yl]methyl]pyrrolo[3,4-b]pyridine-5,7-dione; 2,2,2-trifluoroacetic acid]: below 1000 nM.

On to `Cc1cc(Cl)cc(-c2ccnc3cc(Cn4c(=O)ccn(C)c4=O)sc23)c1O[C@H]1CC[C@H](N)C1` [Example 522, 3-[[7-[2-[(1S,3S)-3-aminocylcopentoxy]-5-chloro-3-methyl-phenyl]thieno[3,2-b]pyridin-2-yl]methyl]-1-methyl-pyrimidine-2,4-dione; 2,2,2-trifluoroacetic acid], for which the IC50 under setting [1] is below 1000 nM. The same measure, in the same setting: then `Cc1cc(Cl)cc(-c2ccnc3cc(Cn4c(=O)c(C(F)(F)F)cn(C)c4=O)sc23)c1O[C@H]1CCCNC1` [Example 581, 3-[[7-[5-chloro-3-methyl-2-[[(3S)-3-piperidyl]oxy]phenyl]thieno[3,2-b]pyridin-2-yl]methyl]-1-methyl-5-(trifluoromethyl)pyrimidine-2,4-dione; 2,2,2-trifluoroacetic acid], with below 1000 nM. On to `Cc1cc(Cl)cc(-c2ccnc3cc(Cn4c(=O)ccn(CC(F)(F)F)c4=O)sc23)c1OC1(C)CNC1` [Example 279, 3-((7-(5-Chloro-3-methyl-2-((3-methylazetidin-3-yl)oxy)phenyl)thieno[3,2-b]pyridin-2-yl)methyl)-1-(2,2,2-trifluoroethyl)pyrimidine-2,4(1H,3H)-dione], for which, under setting [2], the IC50 is below 1000 nM. In the case of `Cc1cc(Cl)cc(-c2ncnc3cc(Cn4c(=O)c(F)cn(C(C)C)c4=O)sc23)c1O[C@H]1CCCNC1` [Example 548, 3-[[4-[5-chloro-3-methyl-2-[[(3S)-3-piperidyl]oxy]phenyl]thieno[3,2-d]pyrimidin-6-yl]metthyl]-5-fluoro-1-isopropyl-pyrimidine-2,4-dione], under setting [1], the IC50 was below 1000 nM. Take `Cc1cc([N+](=O)[O-])cc(-c2ccnc3cc(Cn4c(=O)ccn(CC(F)(F)F)c4=O)sc23)c1OCc1cn[nH]c1` [Example 283, 3-[[7-[3-methyl-5-nitro-2-(1H-pyrazol-4-ylmethoxy)phenyl]thieno[3,2-b]pyridin-2-yl]methyl]-1-(2,2,2-trifluoroethyl)pyrimidine-2,4-dione; 2,2,2-trifluoroacetic acid]: under setting [2], the IC50 was below 1000 nM. Same read-out and setting: next, `Cc1cc(C(F)(F)F)cc(-c2ccnc3cc(CN4C(=O)CCC4=O)sc23)c1O[C@H]1CCCNC1` [Example 254, (S)-1-((7-(3-Methyl-2-(piperidin-3-yloxy)-5-(trifluoromethyl)phenyl)thieno[3,2-b]pyridin-2-yl)methyl)pyrrolidine-2,5-dione]: below 1000 nM. On to `Cc1cc(Cl)cc(-c2ccnc3cc(Cn4c(=O)ccn(CC(F)(F)F)c4=O)sc23)c1O[C@@H]1CNC[C@H](F)C1` [Example 623, 3-[[7-[5-chloro-2-[[(3S,5R)-5-fluoro-3-piperidyl]oxy]-3-methyl-phenyl]thieno[3,2-b]pyridin-2-yl]methyl]-1-(2,2,2-trifluoroethyl)pyrimidine-2,4-dione; 2,2,2-trifluoroacetic acid], for which, under setting [1], the IC50 is below 1000 nM.

As to `COC[C@@H]1C[C@H](Oc2c(C)cc(Cl)cc2-c2ccnc3cc(Cn4c(=O)ccn(CC(F)(F)F)c4=O)sc23)CN1` [Example 647, 3-[[7-[5-chloro-2-[(3S,5S)-5-(methoxymethyl)pyrrolidin-3-yl]oxy-3-methyl-phenyl]thieno[3,2-b]pyridin-2-yl]methyl]-1-(2,2,2-trifluoroethyl)pyrimidine-2,4-dione], the IC50 under setting [1] was below 1000 nM. `Cc1cc(Cl)cc(-c2ncnc3cc(CN4C(=O)CCCC4=O)sc23)c1OC1CCNCC1` [Example 259, 1-((4-(5-Chloro-3-methyl-2-(piperidin-4-yloxy)phenyl)thieno[3,2-d]pyrimidin-6-yl)methyl)piperidine-2,6-dione]: the IC50 under setting [2] fell in the range of 1000 to 10000 nM. As for `Cc1cc(Cl)cc(-c2ccnc3cc(Cn4c(=O)ccn(C)c4=O)sc23)c1OC1CC2CNC1C2` (centres unmarked) [Example 418], the IC50 under setting [1] was below 1000 nM. On to `Cc1cc(Cl)cc(-c2ccnc3cc(Cn4c(=O)ccn(C)c4=O)sc23)c1O[C@H]1CN[C@H](C(=O)O)C1` [Example 600, (2S,4R)-4-[4-chloro-2-methyl-6-[2-[(3-methyl-2,6-dioxo-pyrimidin-1-yl)methyl]thieno[3,2-b]pyridin-7-yl]phenoxy]pyrrolidine-2-carboxylic acid], for which the IC50 under setting [1] lay within 1000 to 10000 nM.

`Cc1cc(Cl)cc(-c2ccnc3cc(CN4CCCCS4(=O)=O)sc23)c1O[C@@H]1CNC[C@@H]1F` [Example 2, 2-((7-(5-Chloro-2-(((3R,4S)-4-fluoropyrrolidin-3-yl)oxy)-3-methylphenyl)thieno[3,2-b]pyridin-2-yl)methyl)-1,2-thiazinane 1,1-dioxide]: the half-maximal inhibitory concentration (IC50) under setting [2] was in the range of 1000 to 10000 nM. On the same count and under the same terms, next, `CCO[C@H]1CNC[C@H]1Oc1c(C)cc(Cl)cc1-c1ccnc2cc(CO)sc12` [Example 73, (7-(5-Chloro-2-(((3R,4S)-4-ethoxypyrrolidin-3-yl)oxy)-3-methylphenyl)thieno[3,2-b]pyridin-2-yl)methanol]: 10000 to 30000 nM; `CC(=O)NCc1cc2nccc(-c3cc(Cl)cc(C)c3O[C@H]3CCCNC3)c2s1` [Example 263, (S)—N-((7-(5-Chloro-3-methyl-2-(piperidin-3-yloxy)phenyl)thieno[3,2-b]pyridin-2-yl)methyl)acetamide]: 1000 to 10000 nM. With `Cc1cc(Cl)cc(-c2ccnc3cc(Cn4c(=O)ccn(CC(F)(F)F)c4=O)sc23)c1O[C@@H]1CN[C@H](C)C1` [Example 633, 3-[[7-[5-chloro-3-methyl-2-[(3S,5R)-5-methylpyrrolidin-3-yl]oxy-phenyl]thieno[3,2-b]pyridin-2-yl]methyl]-1-(2,2,2-trifluoroethyl)pyrimidine-2,4-dione], the IC50 under setting [1] is below 1000 nM. For the compound `Cc1cc(Cl)cc(-c2ccnc3cc(CN4C(=O)C5C(C4=O)C5(C)C)sc23)c1O[C@H]1CCCNC1` (stereo partly drawn) [Example 436, 3-[[7-[5-chloro-3-methyl-2-[[(3S)-3-piperidyl]oxy]phenyl]thieno[3,2-b]pyridin-2-yl]methyl]-6,6-dimethyl-3-azabicyclo[3.1.0]hexane-2,4-dione dihydrochloride], under setting [1], the IC50 was below 1000 nM. Take `Cc1cc(Cl)cc(-c2ccnc3cc(Cn4c(=O)ccn(C)c4=O)sc23)c1O[C@@H]1CC[C@@H](N)C1` [Example 426, 3-[[7-[2-[(1R,3R)-3-aminocyclopentoxy]-5-chloro-3-methyl-phenyl]thieno[3,2-b]pyridin-2-yl]methyl]-1-methyl-pyrimidine-2,4-dione; 2,2,2-trifluoroacetic acid]: the IC50 under setting [1] was below 1000 nM. The same measure, in the same setting: then `Cc1cc(Cl)cc(-c2ccnc3cc(Cn4c(=O)ccn(CC(F)(F)F)c4=O)sc23)c1O[C@@H]1CNC[C@@H]1F` [Example 485, 3-[[7-[5-chloro-2-[(3R,4S)-4-fluoropyrrolidin-3-yl]oxy-3-methyl-phenyl]thieno[3,2-b]pyridin-2-yl]methyl]-1-(2,2,2-trifluoroethyl)pyrimidine-2,4-dione], with below 1000 nM. With `Cc1cc(Cl)cc(-c2ccnc3cc(CN4C(=O)CCC4=O)ccc23)c1O[C@@H]1CNC[C@@H]1F` [Example 100, 1-((4-(5-Chloro-2-(((3R,4S)-4-fluoropyrrolidin-3-yl)oxy)-3-methylphenyl)quinolin-7-yl)methyl)pyrrolidine-2,5-dione], the IC50 under setting [2] fell in the range of 10000 to 30000 nM. Same read-out and setting: then `CC[C@@H](c1cc2nccc(-c3cc(Cl)cc(C)c3OC3CCNCC3)c2s1)N1C(=O)CCC1=O` [Example 256, (S)-1-(1-(7-(5-Chloro-3-methyl-2-(piperidin-4-yloxy)phenyl)thieno[3,2-b]pyridin-2-yl)propyl)pyrrolidine-2,5-dione], with 1000 to 10000 nM.

These data come from patent US10722514B2 (FLX Bio, Inc., priority 2017, dated 2020).
